Measurements taken from BigSolDB 2.1.

Compound: CC(=O)OCC(=O)[C@@]12N=C(C)O[C@@H]1C[C@H]1[C@@H]3CCC4=CC(=O)C=C[C@]4(C)[C@H]3[C@@H](O)C[C@@]12C
- solubility (mole fraction) (in acetone, 293.15 K): 0.00618
- solubility (mole fraction) (in acetone, 298.15 K): 0.00674
- solubility (mole fraction) (in acetone, 303.15 K): 0.00735
- solubility (mole fraction) (in acetone, 308.15 K): 0.00797
- solubility (mole fraction) (in acetone, 313.15 K): 0.00861
- solubility (mole fraction) (in acetone, 318.15 K): 0.00946
- solubility (mole fraction) (in acetone, 323.15 K): 0.0104
- solubility (mole fraction) (in ethanol, 293.15 K): 0.00167
- solubility (mole fraction) (in ethanol, 298.15 K): 0.002
- solubility (mole fraction) (in ethanol, 303.15 K): 0.00236
- solubility (mole fraction) (in ethanol, 308.15 K): 0.00279
- solubility (mole fraction) (in ethanol, 313.15 K): 0.00334
- solubility (mole fraction) (in ethanol, 318.15 K): 0.00397
- solubility (mole fraction) (in ethanol, 323.15 K): 0.00477
- solubility (mole fraction) (in ethanol, 328.15 K): 0.00566
- solubility (mole fraction) (in ethanol, 333.15 K): 0.00663
- solubility (mole fraction) (in ethanol, 338.15 K): 0.00795
- solubility (mole fraction) (in ethanol, 343.15 K): 0.00957
- solubility (mole fraction) (in ethyl acetate, 293.15 K): 0.00331
- solubility (mole fraction) (in ethyl acetate, 298.15 K): 0.00361
- solubility (mole fraction) (in ethyl acetate, 303.15 K): 0.00393
- solubility (mole fraction) (in ethyl acetate, 308.15 K): 0.00426
- solubility (mole fraction) (in ethyl acetate, 313.15 K): 0.00465
- solubility (mole fraction) (in ethyl acetate, 318.15 K): 0.0051
- solubility (mole fraction) (in ethyl acetate, 323.15 K): 0.00559
- solubility (mole fraction) (in ethyl acetate, 328.15 K): 0.0061
- solubility (mole fraction) (in ethyl acetate, 333.15 K): 0.00668
- solubility (mole fraction) (in ethyl acetate, 338.15 K): 0.00737
- solubility (mole fraction) (in ethyl acetate, 343.15 K): 0.00805
- solubility (mole fraction) (in isopropanol, 293.15 K): 0.00127
- solubility (mole fraction) (in isopropanol, 298.15 K): 0.00161
- solubility (mole fraction) (in isopropanol, 303.15 K): 0.00202
- solubility (mole fraction) (in isopropanol, 308.15 K): 0.00249
- solubility (mole fraction) (in isopropanol, 313.15 K): 0.00305
- solubility (mole fraction) (in isopropanol, 318.15 K): 0.0038
- solubility (mole fraction) (in isopropanol, 323.15 K): 0.00456
- solubility (mole fraction) (in isopropanol, 328.15 K): 0.00566
- solubility (mole fraction) (in isopropanol, 333.15 K): 0.00683
- solubility (mole fraction) (in isopropanol, 338.15 K): 0.00813
- solubility (mole fraction) (in isopropanol, 343.15 K): 0.00973
- solubility (mole fraction) (in isopropanol, 348.15 K): 0.0121
